Measurements published in patent publication US20220227745A1, “Compounds For Modulating FXR” (NANJING RUIJIE PHARMA TECH CO., LTD., priority 2019, published 2022).

Key:
[1] = biological target: T1, hFXR-LBD (FXR-GAL4 chimeric receptor) (Homo sapiens, UniProt Q96RI1); test: FXR Transactivation Assay (GAL4 luciferase reporter in HEK293T cells); format: cell-based
T1 construct: host or cells: HEK293T
T1 sequence (Q96RI1 262-486 limits assumed): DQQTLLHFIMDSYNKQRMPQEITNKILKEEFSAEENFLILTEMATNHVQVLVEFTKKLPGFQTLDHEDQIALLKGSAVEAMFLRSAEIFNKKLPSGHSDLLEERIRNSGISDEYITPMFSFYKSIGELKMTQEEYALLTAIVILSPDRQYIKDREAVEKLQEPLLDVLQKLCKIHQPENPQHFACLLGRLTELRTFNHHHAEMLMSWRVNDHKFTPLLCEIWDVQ
Description: FXR Transactivation Assay
The present compounds were tested to assess their ability to stimulate FXR transactivation activity. The hFXR-LBD, coding sequence was inserted into the pBIND expression vector (Promega, E1581) to express FXR-GAL4 binding domain chimeric receptors. This expression vector and reporter vector (pGL4.35 which carry a stably integrated GAL4 promoter driven luciferase reporter gene) were co-transfected into HEK293T host cells. Upon agonist binding to the corresponding FXR-GAL4 chimeric receptor, the chimeric receptor binds to the GAL4 binding sites and stimulates the reporter gene.
All the working stock were shake for 5 min on plate shaker (QILINBEIER). Second, all cells were cultured as ATCC recommended. HEK293T cells were assayed in exponential growth phase. Removed culture medium from the flask and rinsed cells with PBS. Added TrypLE solution to the flask and make cells detach. Next, cells were washed once with complete growth medium. Then, cells were pelleted and washed twice with PBS to remove phenol red and resuspend them in medium to a proper concentration. Only cells with viability greater than 90% were used for assays. Seeded 6×10^6 HEK293T cells into a 100 mm dish and incubated at 37° C. under 5% CO2 atmosphere for 16 h. Third, Trans-IT reagent and Opti-MEM mix by inversion and incubate 5 min at room temperature. The cell transfection was performed by mixing DNA and the reagent mixture, as well as 6 μg GAL4-FXR plasmid or 2 μg pGL4.35 luciferase plasmid, respectively. The reagent mixture was added to a 100 mm dish and incubated for 4-7 hrs at 37° C. under 5% CO2 atmosphere. Fourth, transferred 75 nl compound dilutions into 384-well assay plates (PerkinElmer) and seeded HEK293T cells at 17,000 cells/well using phenol red-free DMEM containing 5% charcoal/dextran-treated FBS. Then, cells were incubated for 16-20 h at 37° C. under 5% CO2 atmosphere. Finally, added 25 μl Steady-Glo™ Luciferase Assay Reagent into each well of 384-well assay plate, and then shake plate for 5 min protected from light on a plate shaker. Then, the luminescence value was read on Evision 2104 plate reader (PerkinElmer).
The activity ratio was calculated as follow: […]
RLU: Resulting Luminescence
RLUpositive: The average RLU for the positive controls across the plate.
RLUvehicle: The average RLU for negative controls across the plate.
(§1) EC50 was calculated by fitting % Activity values and log of compound concentrations to nonlinear regression (dose response-variable slope) with GraphPad 5.0.
(§2) X: log of compound concentration.

FXR LBD, GST = biological target: T2, FXR LBD, GST (Homo sapiens, UniProt Q96RI1); test: FXR Binding Assay (TR-FRET, Fluorescein-SRC2-2 coactivator peptide); conditions: for Emax: % Activity relative to positive control, read-out: Pct Effect (Emax %); for EC50: TR-FRET FXR LBD coactivator recruitment
T2 construct: FXR LBD, GST; purchased Invitrogen PV4834
T2 sequence (Q96RI1 262-486 limits assumed): T1 sequence (Q96RI1 262-486 limits assumed)
Description: The interaction between the present compounds and FXR are evaluated by Time-Resolved Fluorescence Resonance Energy Transfer (TR-FRET) competition assay. FRET describes a radiation-free energy transfer between two chromophores: a donor fluorophore in its excited state can transfer energy to an acceptor fluorophore in close proximity (typically <10 nm). In contrast to standard FRET, TR-FRET unites time-resolved fluorescence (TRF) and the FRET principle, TRF use a long-lifetime lanthanide chelate as the donor species, while lanthanide chelates are unique in that their excited-state lifetime can be on the order of a millisecond or longer. Suitable neighbors for FRET are known in the art and can be obtained.
The assay was performed in following steps: first, prepared a) 1 mM compounds (100×) in DMSO; b) reaction buffer containing 1× buffer G with 10 mM DTT; c) 4×FXR LBD (20 nM) in 1× chilled buffer G. Second, performed 3-fold serial dilution of 1 mM test compounds using DMSO from 1 mM, 10 doses in a 96-well plate (249944, Nunc). Then, used complete buffer G to dilute each 100× compounds serial dilution to 2×. Third, added 10 μl 2× compound serial dilution into 384-well plate (3677, Corning). Then, added 5 μl FXR LBD into the assay plate. Prepared a solution containing 2 μM fluorescein-SRC2-2 (4×) and 20 nM Tb anti-GST antibody (4×) in buffer G at room temperature and started the reaction by adding 5 μl the above solution into each well of the assay plate. Centrifuged the assay plates at 1000 g for 1 min and then incubated at room temperature for lhr protected from light. Finally, the plate was read at wavelengths of 520 nm and 495 nm on Envision 2104 plate reader (PerkinElmer).
A ratio (Ratio520 nm/495 nm−Ratiobackground) was calculated for each well. The activity ratio was calculated as follow: […]
Ratiopositive: The average ratio for the positive control across the plate.
Ratiovehicle: The average ratio for negative controls across the plate.
as §1, §2

Compound `Cn1cc(C(=O)O)c2ccc(N3CCN(CCc4c(-c5c(Cl)cccc5Cl)noc4C4CC4)CC3)cc21` [Example I1, 6-(4-(2-(5-cyclopropyl-3-(2,6-dichlorophenyl)isoxazol-4-yl)ethyl)piperazin-1-yl)-1-methyl-1H-indole-3-carboxylic Acid] has an EC50 [1] of 101 nM, an Emax (FXR LBD, GST) of 161% and an EC50 (FXR LBD, GST) of 58 nM.
With `Cn1cc(C(=O)O)c2ccc(N3CCN(C(=O)Cc4c(-c5c(Cl)cccc5Cl)noc4C4CC4)CC3)cc21` [Example I2, 6-(4-(2-(5-cyclopropyl-3-(2,6-dichlorophenyl)isoxazol-4-yl)acetyl)piperazin-1-yl)-1-methyl-1H-indole-3-carboxylic Acid] the EC50 [1] was 11100 nM, the Emax (FXR LBD, GST) was 75.1% and the EC50 (FXR LBD, GST) was 5110 nM.
`CC(C)c1onc(-c2c(Cl)cccc2Cl)c1CCN1CCN(c2ccc3c(C(=O)O)cn(C)c3c2)CC1` [Example I3, 6-(4-(2-(3-(2,6-dichlorophenyl)-5-isopropylisoxazol-4-yl)ethyl)piperazin-1-yl)-1-methyl-1H-indole-3-carboxylic Acid] gave an EC50 [1] of 239 nM, an Emax (FXR LBD, GST) of 192% and an EC50 (FXR LBD, GST) of 91 nM.
`O=C(O)c1ccc2nc(N3CCN(CCc4c(-c5c(Cl)cccc5Cl)noc4C4CC4)CC3)sc2c1` [Example I4, 2-(4-(2-(5-cyclopropyl-3-(2,6-dichlorophenyl)isoxazol-4-yl)ethyl)piperazin-1-yl)benzo[d]thiazole-6-carboxylic Acid] was tested, and the EC50 [1] was 1500 nM, the Emax (FXR LBD, GST) was 89.8% and the EC50 (FXR LBD, GST) was 244 nM.
Work on `O=C(O)c1cc(F)c2nc(N3CCN(CCc4c(-c5ccccc5OC(F)(F)F)noc4C4CC4)CC3)sc2c1` [Example I5, 2-(4-(2-(5-cyclopropyl-3-(2-(trifluoromethoxy)phenyl)isoxazol-4-yl)ethyl)piperazin-1-yl)-4-fluorobenzo[d]thiazole-6-carboxylic Acid] yielded an EC50 [1] of 2380 nM, an Emax (FXR LBD, GST) of 116% and an EC50 (FXR LBD, GST) of 297 nM.
Work on `O=C(O)c1ccc2cc(N3CCN(CCc4c(-c5c(Cl)cccc5Cl)noc4C4CC4)CC3)ccc2n1` [Example I6, 6-(4-(2-(5-cyclopropyl-3-(2,6-dichlorophenyl)isoxazol-4-yl)ethyl)piperazin-1-yl)quinoline-2-carboxylic Acid] yielded an EC50 [1] of 459 nM, an Emax (FXR LBD, GST) of 142% and an EC50 (FXR LBD, GST) of 118 nM.
Work on `Cn1cc(C(=O)O)c2ccc(N3CCCN(CCc4c(-c5c(Cl)cccc5Cl)noc4C4CC4)CC3)cc21` [Example I7, 6-(4-(2-(5-cyclopropyl-3-(2,6-dichlorophenyl)isoxazol-4-yl)ethyl)-1,4-diazepan-1-yl)-1-methyl-1H-indole-3-carboxylic Acid] yielded an EC50 [1] of 743 nM, an Emax (FXR LBD, GST) of 98.1% and an EC50 (FXR LBD, GST) of 25 nM.
With `CC1CN(c2ccc3c(C(=O)O)cn(C)c3c2)CCN1CCc1c(-c2c(Cl)cccc2Cl)noc1C1CC1` (stereo not drawn) [Example I8, 6-(4-(2-(5-cyclopropyl-3-(2,6-dichlorophenyl)isoxazol-4-yl)ethyl)-3-methylpiperazin-1-yl)-1-methyl-1H-indole-3-carboxylic Acid] the EC50 [1] was 138 nM, the Emax (FXR LBD, GST) was 202% and the EC50 (FXR LBD, GST) was 94 nM.
`CC1CCN(c2ccc3c(C(=O)O)cn(C)c3c2)CCN1CCc1c(-c2c(Cl)cccc2Cl)noc1C1CC1` (stereo not drawn) [Example I55, 6-(4-(2-(5-cyclopropyl-3-(2,6-dichlorophenyl)isoxazol-4-yl)ethyl)-5-methyl-1,4-diazepan-1-yl)-1-methyl-1H-indole-3-carboxylic Acid] was tested, and the Emax (FXR LBD, GST) was 70.9% and the EC50 (FXR LBD, GST) was 2770 nM.
`COC(=O)c1cn(C)c2cc(N3CCC(C)N(CCc4c(-c5c(Cl)cccc5Cl)noc4C4CC4)CC3)ccc12` (stereo not drawn) [Example I56, methyl 6-(4-(2-(5-cyclopropyl-3-(2,6-dichlorophenyl)isoxazol-4-yl)ethyl)-5-methyl-1,4-diazepan-1-yl)-1-methyl-1H-indole-3-carboxylate] was tested, and the EC50 (FXR LBD, GST) was over 10000 nM.
`CC1CC(c2ccc3c(C(=O)O)cn(C)c3c2)CCN1CCc1c(-c2c(Cl)cccc2Cl)noc1C1CC1` (stereo not drawn) [Example I57, 6-(1-(2-(5-cyclopropyl-3-(2,6-dichlorophenyl)isoxazol-4-yl)ethyl)-2-methylpiperidin-4-yl)-1-methyl-1H-indole-3-carboxylic Acid] showed an Emax (FXR LBD, GST) of 180% and an EC50 (FXR LBD, GST) of 384 nM.
Work on `COC(=O)c1cn(C)c2cc(N3CCC(N(C)Cc4c(-c5c(Cl)cccc5Cl)noc4C4CC4)CC3)ccc12` [Example I59, methyl 6-(4-(((5-cyclopropyl-3-(2,6-dichlorophenyl)isoxazol-4-yl)methyl)(methyl)amino)piperidin-1-yl)-1-methyl-1H-indole-3-carboxylate] yielded an EC50 (FXR LBD, GST) of over 10000 nM.
`O=C(O)c1cc(F)c2nc(N3CC4CC(C3)C4OCc3c(-c4ccccc4OC(F)(F)F)noc3C3CC3)sc2c1` (stereo not drawn) [Example I60, 2-(6-((5-cyclopropyl-3-(2-(trifluoromethoxy)phenyl)isoxazol-4-yl)methoxy)-3-azabicyclo[3.1.1]heptan-3-yl)-4-fluorobenzo[d]thiazole-6-carboxylic Acid] was tested, and the Emax (FXR LBD, GST) was 35.3% and the EC50 (FXR LBD, GST) was 732 nM.
`Cn1cc(C(=O)O)c2ccc(N3CC4CC(C3)C4OCc3c(-c4c(Cl)cccc4Cl)noc3C3CC3)cc21` (stereo not drawn) [Example I61, 6-(6-((5-cyclopropyl-3-(2,6-dichlorophenyl)isoxazol-4-yl)methoxy)-3-azabicyclo[3.1.1]heptan-3-yl)-1-methyl-1H-indole-3-carboxylic Acid] showed an Emax (FXR LBD, GST) of 67.7% and an EC50 (FXR LBD, GST) of 616 nM.
`Cn1cc(C(=O)O)c2c(F)cc(N3CC4CC(C3)C4OCc3c(-c4c(Cl)cccc4Cl)noc3C3CC3)cc21` (stereo not drawn) [Example I63, 6-(6-((5-cyclopropyl-3-(2,6-dichlorophenyl)isoxazol-4-yl)methoxy)-3-azabicyclo[3.1.1]heptan-3-yl)-4-fluoro-1-methyl-1H-indole-3-carboxylic Acid] was tested, and the Emax (FXR LBD, GST) was 106% and the EC50 (FXR LBD, GST) was 102 nM.
`O=C(O)c1ccc2nc(N3CC4CC(C3)C4OCc3c(-c4c(Cl)cccc4Cl)noc3C3CC3)sc2c1` (stereo not drawn) [Example I65, 2-(6-((5-cyclopropyl-3-(2,6-dichlorophenyl)isoxazol-4-yl)methoxy)-3-azabicyclo[3.1.1]heptan-3-yl)benzo[d]thiazole-6-carboxylic Acid] showed an EC50 (FXR LBD, GST) of over 10000 nM.
With `O=C(O)c1ccc2nc(N3CC4CC(C3)C4OCc3c(-c4ccccc4OC(F)(F)F)noc3C3CC3)sc2c1` (stereo not drawn) [Example I66, 2-(6-((5-cyclopropyl-3-(2-(trifluoromethoxy)phenyl)isoxazol-4-yl)methoxy)-3-azabicyclo[3.1.1]heptan-3-yl)benzo[d]thiazole-6-carboxylic Acid] the EC50 (FXR LBD, GST) was over 10000 nM.
For `O=C(O)c1ccc2nc(N3CC4CC(C3)C4OCc3c(-c4c(Cl)cccc4Cl)noc3C3CC3)sc2c1` (stereo not drawn) [Example I67, 2-(6-((5-cyclopropyl-3-(2,6-dichlorophenyl)isoxazol-4-yl)methoxy)-3-azabicyclo[3.1.1]heptan-3-yl)benzo[d]thiazole-6-carboxylic Acid], the EC50 (FXR LBD, GST) was over 10000 nM.
